Experimental data as given in PubChem BioAssay AID1919010 (Molecular Pharmacology Branch, DTP, NCI, 2023).
Several values for one entry are separate records, joined by “and”; a condition that tells them apart may be missing. Equal values may be shown once.

Tested on: Hs578T complex spheroid growth, percent test/control
Assay: Anticancer human tumor Hs578T cell line growth inhibition [AhR];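 further: luminescent viability signal as a proxy for spheroid growth; spheroids exposed to agents for one week after three days of growth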
Details: for viability, T/C: stronger effect = lower value
From the text: Multicellular complex tumor spheroid response to aryl hydrocarbon receptor antagonists in combination with a variety of drugs and investigational agents in selected tumor cell lines
The current study was undertaken to assess response to aryl hydrocarbon receptor antagonists in combination with standard-of-care drugs and investigational agents in solid tumor complex spheroid models. Complex spheroids include a stromal component modeled by human endothelial cells (HUVEC) and fibroblasts modeled by human mesenchymal stem cells (MSCs). The concentration ranges selected for each drug and investigational agent were based upon clinically achievable concentrations if the clinical Cmax of the agent was known.
Compounds. The drugs and investigational agents: BAY 2416964 (NSC825713), GNF351 (NSC835774), CH-223191 (NSC835775), CPI-455 (NSC825282), aza-TdCyd (NSC777586), decitabine (NSC127716), belinostat (NSC758774), entinostat (NSC756642), pevonedistat (NSC761192), tazemetostat (NSC777109), talazoparib (NSC765396), olaparib (NSC753686), selinexor (NSC780203), nedisertib (M3814, NSC802822), bortezomib (NSC756655), venetoclax (NSC766270), doxorubicin (NSC123127), elimusertib (BAY189344, NSC800525), ceralasertib (AZD6738, NSC777638), TAK-243 (NSC785004), alisertib (NSC759677), etoposide (NSC141540), topotecan (NSC609699), eribulin (NSC707389), gemcitabine (NSC613327), carboplatin (NSC241240), cisplatin (NSC119875), and SN-38 (NSC673596) were obtained from the National Cancer Institute (NCI) Developmental Therapeutics Program Chemical Repository (32). The FDA-approved anticancer drug set is available from the Developmental Therapeutics Program at https://dtp.cancer.gov/organization/dscb/obtaining/available plates.htm. […] The stock solutions were prepared in dimethyl sulfoxide (DMSO, Sigma-Aldrich, St. Louis, MO, cat. D2650), except for the platinum compounds which were prepared in saline (Quality Biological, Gaithersburg, MD, cat. 114-055-101), at 800-fold the tested concentration and stored at -70 degrees C prior to their use. All drugs and investigational agents were tested over a range starting from a high concentration at or near the clinical Cmax and decreasing in half-log increments. If the clinical Cmax for an agent had not been determined, the highest concentration tested was 10 microM (Table 1).
Cell Culture. All cells were maintained in an incubator at 37 degrees C and 5% CO2 with 95% humidity. The PDC lines were cultured according to standard operating procedures established by the NCI PDMR (https://pdmr.cancer.gov). Briefly, all PDCs were thawed and cultured in Matrigel-coated flasks prepared with a working solution of 1X Ham's F-12 nutrient mix, without supplementation (Invitrogen, Waltham, MA, cat. 11765054), 100 U/mL penicillin-streptomycin (Invitrogen, cat. 15140122), and 2.5% Matrigel (Corning Inc., Corning, NY, cat. 354248) for the first three passages. All PDCs were cultured in complete DMEM/F-12 media containing advanced DMEM/F-12 (Invitrogen, cat. 12634028), 4.9% defined fetal bovine serum, heat inactivated (HyClone Laboratories Inc., Logan, UT, cat. SH30070.03HI), 389 ng/mL hydrocortisone (Sigma-Aldrich, cat. H4001), 9.7 ng/mL human EGF recombinant protein (Invitrogen, cat. PHG0313), 23.4 microg/mL adenine (Sigma-Aldrich, cat. A2786), 97.3 U/mL penicillin-streptomycin (Invitrogen, cat. 15140122), 1.9 mM L-glutamine (Invitrogen, cat. 25030081), and 9.7 microM Y-27632 dihydrochloride (Tocris Bioscience, Bristol, United Kingdom, cat. 1254). The PDCs were cultured in complete DMEM/F12 media without 10 microM Y-27632 dihydrochloride for at least two passages prior to the screen. The established cell lines NCI-H1341 and […] were cultured in DMEM/F-12, HEPES (Invitrogen, cat. 11330032), 5% defined fetal bovine serum (HyClone Laboratories Inc., cat. SH30070.03), ITS premix universal culture supplement [insulin (5 microg/mL), transferrin (5 microg/mL), and selenious acid (5 ng/mL)] […]

Row | SMILES | IC50 (curve of compound) | viability, T/C (compound 0.0316 µM) | viability, T/C (compound 0.1 µM) | viability, T/C (compound 0.316 µM) | viability, T/C (compound 1 µM) | viability, T/C (compound 3.16 µM) | viability, T/C (compound 10 µM) | further results
1 | CC(C)CC(NC(=O)C(Cc1ccccc1)NC(=O)c1cnccn1)B(O)O (stereo not given) | 6.56 nM and 5.49 nM and 4.5 nM |  |  |  |  |  |  | viability, T/C (compound 0.000949 µM): 105% and 102% and 101%; viability, T/C (compound 0.003 µM): 94% and 86.9% and 73.4%; viability, T/C (compound 0.00949 µM): 29.3% and 16.7% and 7.03%; viability, T/C (compound 0.03 µM): 0.41% and 0.42% and 0.68%; viability, T/C (compound 0.0949 µM): 0.27% and 0.44% and 1.61%; viability, T/C (compound 0.3 µM): 0.58% and 0.42% and 0.53%
2 | CC(C)c1c(-c2ccccc2)nc2c(C#N)c[nH]n2c1=O | > 10000 nM | 103% and 106% and 97.8% | 106% and 114% and 105% | 102% and 101% and 106% | 113% and 101% and 100% | 102% and 116% and 98.1% | 101% and 115% and 93.1% | 
3 | CC(CO)NC(=O)c1cc(-c2ccc(Cl)cc2)nn(-c2cnn(C)c2)c1=O (stereo not given) |  |  |  | 116% [middle of 21 runs] | 109% [middle of 20 runs] |  |  | IC50 (compound alone, run of 08/08/2022): > 10000 nM
4 | CC1(C)CCC(CN2CCN(c3ccc(C(=O)NS(=O)(=O)c4ccc(NCC5CCOCC5)c([N+](=O)[O-])c4)c(Oc4cnc5[nH]ccc5c4)c3)CC2)=C(c2ccc(Cl)cc2)C1 | > 10000 nM | 103% and 111% and 99.9% | 110% and 109% and 97.8% | 112% and 104% and 99.2% | 91% and 103% and 92.9% | 101% and 97.7% and 82.6% | 84% and 62.3% and 78.2% | 
5 | CC1COCCN1c1cc(-c2ccnn2C)c2ccnc(-c3ccn[nH]3)c2n1 (stereo not given) | 658 nM and 326 nM and 298 nM | 97.8% and 102% and 95.5% | 78.7% and 81.3% and 77.2% | 60.4% and 51% and 48.1% | 44.3% and 36.2% and 37.9% |  |  | viability, T/C (compound 0.00316 µM): 109% and 104% and 102%; viability, T/C (compound 0.01 µM): 105% and 104% and 114%
6 | CC1COCCN1c1cc(C2(S(C)(=N)=O)CC2)nc(-c2ccnc3[nH]ccc23)n1 (stereo not given) | > 10000 nM and 9320 nM | 105% and 94.7% and 106% | 108% and 91.7% and 112% | 119% and 99.9% and 103% | 105% and 89.6% and 108% | 104% and 76.3% and 81.6% | 60.3% and 48.3% and 55.5% | 
7 | CCN(c1cc(-c2ccc(CN3CCOCC3)cc2)cc(C(=O)NCc2c(C)cc(C)[nH]c2=O)c1C)C1CCOCC1 | > 3000 nM |  |  |  |  |  |  | viability, T/C (compound 0.00949 µM): 103% and 101% and 104%; viability, T/C (compound 0.03 µM): 105% and 99% and 108%; viability, T/C (compound 0.0949 µM): 109% and 101% and 95.7%; viability, T/C (compound 0.3 µM): 91.3% and 103% and 98.4%; viability, T/C (compound 0.949 µM): 100% and 97.4% and 94.9%; viability, T/C (compound 3 µM): 95.2% and 97.7% and 99.6%
8 | CC[C@@]1(O)C(=O)OCc2c1cc1n(c2=O)Cc2cc3c(CN(C)C)c(O)ccc3nc2-1 | > 100 nM | 76.8% and 64.2% and 77.9% | 69.3% and 71.8% and 68.2% |  |  |  |  | viability, T/C (compound 0.000316 µM): 94.7% and 97.6% and 107%; viability, T/C (compound 0.001 µM): 106% and 98.2% and 103%; viability, T/C (compound 0.00316 µM): 105% and 90.3% and 95.3%; viability, T/C (compound 0.01 µM): 96.5% and 72.5% and 96.3%
9 | CCc1c2c(nc3ccc(O)cc13)-c1cc3c(c(=O)n1C2)COC(=O)[C@]3(O)CC | 253 nM and 124 nM and 206 nM |  |  |  |  |  |  | viability, T/C (compound 0.000949 µM): 83.3% and 77.6% and 78.6%; viability, T/C (compound 0.003 µM): 70.5% and 82.2% and 73.2%; viability, T/C (compound 0.00949 µM): 74% and 64.3% and 76.1%; viability, T/C (compound 0.03 µM): 64.6% and 63.2% and 75%; viability, T/C (compound 0.0949 µM): 62.3% and 56.5% and 61.9%; viability, T/C (compound 0.3 µM): 47.1% and 38.3% and 43.4%
10 | COc1cc(C2c3cc4c(cc3C(OC3OC5COC(C)OC5C(O)C3O)C3COC(=O)C23)OCO4)cc(OC)c1O (stereo not given) | > 10000 nM | 85.4% and 94.6% and 92.8% | 99.7% and 91.7% and 91.5% | 84.1% and 88.8% and 79.9% | 66.8% and 82.6% and 69.9% | 69.5% and 79.7% and 71.9% | 58.1% and 56.4% and 57.1% | 
11 | COc1cc(Nc2ncc3c(n2)-c2ccc(Cl)cc2C(c2c(F)cccc2OC)=NC3)ccc1C(=O)O | 9280 nM and 6150 nM and 8470 nM | 78.2% and 84.4% and 89.2% | 92.6% and 82.2% and 94% | 97% and 80.2% and 85.2% | 96.8% and 87% and 87.8% | 89.2% and 70.9% and 81% | 47.3% and 34.7% and 44.9% | 
12 | COc1ccc([C@@H](O)c2cc(-c3ncnc4cc(N5CCOCC5)ccc34)c(F)cc2Cl)nn1 | 4830 nM and 2640 nM and 3670 nM | 98.8% and 109% and 95.3% | 106% and 104% and 89.5% | 90.8% and 87.6% and 99.6% | 90.1% and 71.2% and 78.9% | 57.8% and 44.8% and 53.4% | 35.3% and 31.1% and 33.9% | 
